Experimental data taken from patent US20210078988A1, “MODULATORS OF INDOLEAMINE 2,3-DIOXYGENASE” (GLAXOSMITHKLINE INTELLECTUAL PROPERTY DEVELOPMENT LIMITED, priority 2017, published 2021).

Target: T1, indoleamine 2, 3-dioxygenase (IDO1) (Homo sapiens, UniProt P14902)
T1 construct: human peripheral blood mononuclear cells (PBMC) (PB003F; host or cells: human PBMC stimulated with IFN-gamma and LPS
Test: PBMC IDO1 assay (kynurenine detection via mass spectrometry)
Type: cell-based
Details: human PBMC stimulated with IFN-γ and LPS, 2 days, kynurenine by mass spectrometry; read-out: IDO1 PBMC pIC50 (converted)
In short: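 Human PBMCs (50,000/well) stimulated with IFN-γ 100 ng/ml and LPS 50 ng/ml were exposed to 11-point 3-fold compound dilutions for 2 days at 37 °C. Supernatant kynurenine was quantified by RapidFire MS relative to an internal standard; parallel CellTiter-Glo ATP luminescence measured cytotoxicity, with four-parameter curve fitting.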

T1 sequence (P14902 whole entry): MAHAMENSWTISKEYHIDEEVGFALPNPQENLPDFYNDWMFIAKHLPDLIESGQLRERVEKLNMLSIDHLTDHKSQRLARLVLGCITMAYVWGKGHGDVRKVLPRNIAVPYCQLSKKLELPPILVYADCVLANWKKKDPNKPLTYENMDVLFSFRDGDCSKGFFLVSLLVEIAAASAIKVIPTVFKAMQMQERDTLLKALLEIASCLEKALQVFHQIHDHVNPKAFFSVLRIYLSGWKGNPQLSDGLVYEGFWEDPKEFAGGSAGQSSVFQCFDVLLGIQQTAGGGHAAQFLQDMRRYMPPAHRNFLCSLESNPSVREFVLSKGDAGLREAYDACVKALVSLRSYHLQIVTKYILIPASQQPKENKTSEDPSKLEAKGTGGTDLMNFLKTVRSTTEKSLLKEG

| IC50 [nM] | Structure (SMILES) |
| --- | --- |
| 39.8 | CCN(CC)c1ccc(C(CC2CCN(C(=O)OC(C)(C)C)CC2)NC(=O)c2ccc(F)cc2)cn1 (centres unmarked) [Example 122, tert-butyl 4-(2-(6-(diethylamino)pyridin-3-yl)-2-(4-fluorobenzamido)ethyl)piperidine-1-carboxylate] |
| 39.8 | COc1ccc(C(=O)N[C@@H](CC2CCN(C(=O)OC(C)(C)C)CC2)c2ccccc2)cn1 [Example 123, (S)-tert-butyl 4-(2-(6-methoxynicotinamido)-2-phenylethyl)piperidine-1-carboxylate] |
| 39.8 | CC(C)c1ccc(C(=O)NC(CC2CCN(C(=O)OC(C)(C)C)CC2)c2ccccc2)s1 (centres unmarked) [Example 124, tert-butyl 4-(2-(5-isopropylthiophene-2-carboxamido)-2-phenylethyl)piperidine-1-carboxylate] |
| 39.8 | CC(C)COC(=O)N1CCC(CC(NC(=O)c2ccc(Cl)cc2)c2ccccc2)CC1 (centres unmarked) [Example 125, isobutyl 4-(2-(4-chlorobenzamido)-2-phenylethyl)piperidine-1-carboxylate] |
| 39.8 | CC(C)(C)OC(=O)N1CCC(CC(NC(=O)c2ccc(Br)cc2)C2CCCC2)CC1 (centres unmarked) [Example 126, tert-butyl 4-(2-(4-bromobenzamido)-2-cyclopentylethyl)piperidine-1-carboxylate] |
| 39.8 | CCNc1nnc(C(CC2CCN(C(=O)OC(C)(C)C)CC2)NC(=O)c2ccc(Cl)s2)o1 (centres unmarked) [Example 127, tert-butyl 4-(2-(5-chlorothiophene-2-carboxamido)-2-(5-(ethylamino)-1,3,4-oxadiazol-2-yl)ethyl)piperidine-1-carboxylate] |
| 39.8 | CC(C)(C)OC(=O)N1CCC(CC(NC(=O)c2csc(Cl)c2)c2ccccc2)CC1 (centres unmarked) [Example 128, tert-butyl 4-(2-(5-chlorothiophene-3-carboxamido)-2-phenylethyl)piperidine-1-carboxylate] |
| 39.8 | CC(C)(C)OC(=O)N1CCC(C[C@@H](CCN2CCOCC2)NC(=O)c2ccc(Cl)s2)CC1 [Example 129, (S)-tert-butyl 4-(2-(5-chlorothiophene-2-carboxamido)-4-morpholinobutyl)piperidine-1-carboxylate] |
| 50.1 | Cc1ccc(C(=O)NC(CC2CCN(C(=O)OC(C)(C)C)CC2)c2ccccc2)cc1 (centres unmarked) [Example 130, tert-butyl 4-(2-(4-methylbenzamido)-2-phenylethyl)piperidine-1-carboxylate] |
| 50.1 | CC(C)(C)OC(=O)N1CCC(CC(NC(=O)c2cccs2)c2ccccc2)CC1 (centres unmarked) [Example 131, tert-butyl 4-(2-phenyl-2-(thiophene-2-carboxamido)ethyl)piperidine-1-carboxylate] |
| 50.1 | CC(C)(C)OC(=O)N1CCC(CC(NC(=O)c2ccc(F)cc2)c2ccc(OC3CCCCC3)nc2)CC1 (centres unmarked) [Example 132, tert-butyl 4-(2-(6-(cyclohexyloxy)pyridin-3-yl)-2-(4-fluorobenzamido)ethyl)piperidine-1-carboxylate] |
| 50.1 | CC(C)(C)OC(=O)N1CCC(CC(NC(=O)c2ccc(C3CC3)c(F)c2)c2ccccc2)CC1 (centres unmarked) [Example 133, tert-butyl 4-(2-(4-cyclopropyl-3-fluorobenzamido)-2-phenylethyl)piperidine-1-carboxylate] |
| 50.1 | COC(=O)N1CCC(CC(NC(=O)c2ccc(Cl)cc2)c2ccccc2)CC1 (centres unmarked) [Example 134, methyl 4-(2-(4-chlorobenzamido)-2-phenylethyl)piperidine-1-carboxylate] |
| 50.1 | CC(C)(C)OC(=O)N1CCC(CC(NC(=O)c2ccc(Cl)cc2)C2CCCCC2)CC1 (centres unmarked) [Example 135, tert-butyl 4-(2-(4-chlorobenzamido)-2-cyclohexylethyl)piperidine-1-carboxylate] |
| 50.1 | Cc1ccc(C(=O)NC(CC2CCN(C(=O)C(F)(F)c3ccccn3)CC2)c2ccccc2)s1 (centres unmarked) [Example 136, N-(2-(1-(2,2-difluoro-2-(pyridin-2-yl)acetyl)piperidin-4-yl)-1-phenylethyl)-5-methylthiophene-2-carboxamide] |
| 50.1 | Cc1ccc(C(=O)NC(CC2CCN(c3ccccc3)CC2)c2ccccc2)s1 (centres unmarked) [Example 137, 5-methyl-N-(1-phenyl-2-(1-phenylpiperidin-4-yl)ethyl)thiophene-2-carboxamide] |
| 63.1 | CC(C)(C)OC(=O)N1CCC(CC(NC(=O)c2ccccc2)c2ccccc2)CC1 (centres unmarked) [Example 138, tert-butyl 4-(2-benzamido-2-phenylethyl)piperidine-1-carboxylate] |
| 63.1 | Cc1ccc(C(=O)NC(CC2CCN(C(=O)OC(C)(C)C)CC2)c2ccccc2)cc1F (centres unmarked) [Example 139, tert-butyl 4-(2-(3-fluoro-4-methylbenzamido)-2-phenylethyl)piperidine-1-carboxylate] |
| 63.1 | CN(Cc1ccccc1)c1nnc(C(CC2CCN(C(=O)OC(C)(C)C)CC2)NC(=O)c2ccc(Cl)s2)o1 (centres unmarked) [Example 140, tert-butyl 4-(2-(5-(benzyl(methyl)amino)-1,3,4-oxadiazol-2-yl)-2-(5-chlorothiophene-2-carboxamido)ethyl)piperidine-1-carboxylate] |

| IC50 [nM] | Structure (SMILES) |
| --- | --- |
| 63.1 | CC(C)(C)OC(=O)N1CCC(CC(NC(=O)c2ccc(C#N)cc2)c2ccccc2)CC1 (centres unmarked) [Example 141, tert-butyl 4-(2-(4-cyanobenzamido)-2-phenylethyl)piperidine-1-carboxylate] |
| 63.1 | CC(C)(C)OC(=O)N1CCC(CC(CNCc2ccccc2)NC(=O)c2ccc(F)cc2)CC1 (centres unmarked) [Example 142, tert-butyl 4-(3-(benzylamino)-2-(4-fluorobenzamido)propyl)piperidine-1-carboxylate] |
| 79.4 | COc1ccc(C(=O)NC(CC2CCN(C(=O)OC(C)(C)C)CC2)c2ccccc2)cc1 (centres unmarked) [Example 143, tert-butyl 4-(2-(4-methoxybenzamido)-2-phenylethyl)piperidine-1-carboxylate] |
| 79.4 | CC(C)Oc1ccc(C(CC2CCN(C(=O)OC(C)(C)C)CC2)NC(=O)c2ccc(F)cc2)cn1 (centres unmarked) [Example 144, tert-butyl 4-(2-(4-fluorobenzamido)-2-(6-isopropoxypyridin-3-yl)ethyl)piperidine-1-carboxylate] |
| 79.4 | COC(=O)N1CCC(CC(NC(=O)c2ccc(F)cc2)c2ccc(OC)nc2)CC1 (centres unmarked) [Example 145, methyl 4-(2-(4-fluorobenzamido)-2-(6-methoxypyridin-3-yl)ethyl)piperidine-1-carboxylate] |
| 79.4 | CC(C)(C)OC(=O)N1CCC(CC(NC(=O)c2cccc(F)c2)c2ccccc2)CC1 (centres unmarked) [Example 146, tert-butyl 4-(2-(3-fluorobenzamido)-2-phenylethyl)piperidine-1-carboxylate] |
| 79.4 | CC(C)(C)OC(=O)N1CCC(CC(NC(=O)c2ccc(F)c(F)c2)c2ccccc2)CC1 (centres unmarked) [Example 147, tert-butyl 4-(2-(3,4-difluorobenzamido)-2-phenylethyl)piperidine-1-carboxylate] |
| 79.4 | CC(C)(C)OC(=O)N1CCC(C[C@H](Nc2nc3ccc(Cl)cc3o2)C2CC2)CC1 [Example 148, (S)-tert-butyl 4-(2-((6-chlorobenzo[d]oxazol-2-yl)amino)-2-cyclopropylethyl)piperidine-1-carboxylate] |
| 79.4 | CC#CCOc1ccc(C(=O)NC(CC2CCN(C(=O)OC(C)(C)C)CC2)c2ccccc2)cc1 (centres unmarked) [Example 149, tert-butyl 4-(2-(4-(but-2-yn-1-yloxy)benzamido)-2-phenylethyl)piperidine-1-carboxylate] |
| 79.4 | O=C(NC(CC1CCN(C(=O)OC2CCCCC2)CC1)c1ccccc1)c1ccc(Cl)cc1 (centres unmarked) [Example 150, cyclohexyl 4-(2-(4-chlorobenzamido)-2-phenylethyl)piperidine-1-carboxylate] |
| 79.4 | CC(C)(C)OC(=O)N1CCC(CC(NC(=O)c2ccc(Cl)cc2)C2CCCC2)CC1 (centres unmarked) [Example 151, tert-butyl 4-(2-(4-chlorobenzamido)-2-cyclopentylethyl)piperidine-1-carboxylate] |
| 79.4 | CC(C)(C)OC(=O)N1CCC(CC(NC(=O)c2ccc(F)cc2)C2CCCCC2)CC1 (centres unmarked) [Example 152, tert-butyl 4-(2-cyclohexyl-2-(4-fluorobenzamido)ethyl)piperidine-1-carboxylate] |
| 79.4 | Cc1cc(C(=O)NC(CC2CCN(C(=O)OC(C)(C)C)CC2)c2ccccc2)cs1 (centres unmarked) [Example 153, tert-butyl 4-(2-(5-methylthiophene-3-carboxamido)-2-phenylethyl)piperidine-1-carboxylate] |
| 79.4 | CCCC(=O)N1CCC(CC(NC(=O)c2ccc(Cl)cc2)c2ccccc2)CC1 (centres unmarked) [Example 154, N-(2-(1-butyrylpiperidin-4-yl)-1-phenylethyl)-4-chlorobenzamide] |
| 79.4 | C=CC[C@@H](CC1CCN(C(=O)OC(C)(C)C)CC1)NC(=O)c1ccc(Cl)s1 [Example 155, (S)-tert-butyl 4-(2-(5-chlorothiophene-2-carboxamido)pent-4-en-1-yl)piperidine-1-carboxylate] |
| 79.4 | Cc1ccc(C(=O)NC(CC2CCN(C(=O)c3ccccc3)CC2)c2ccccc2)s1 (centres unmarked) [Example 156, N-(2-(1-benzoylpiperidin-4-yl)-1-phenylethyl)-5-methylthiophene-2-carboxamide] |
| 100 | COc1ccc(C(=O)NC(CC2CCN(C(=O)OC(C)(C)C)CC2)c2ccccc2)cn1 (centres unmarked) [Example 157, tert-butyl 4-(2-(6-methoxynicotinamido)-2-phenylethyl)piperidine-1-carboxylate] |
| 100 | CCOC(=O)N1CCC(CC(NC(=O)c2ccc(OC)nc2)C2CC2)CC1 (centres unmarked) [Example 158, ethyl 4-(2-cyclopropyl-2-(6-methoxynicotinamido)ethyl)piperidine-1-carboxylate] |
| 100 | CC(C)(C)OC(=O)N1CCC(CC(NC(=O)c2ccsc2)c2ccccc2)CC1 (centres unmarked) [Example 159, tert-butyl 4-(2-phenyl-2-(thiophene-3-carboxamido)ethyl)piperidine-1-carboxylate] |
